Patent US4416884A, “Piperazinylbenzoheterocyclic compounds” (Otsuka Pharmaceutical Co., Ltd., priority 1978, dated 1983)
Values after ≈ are worked out from the molar mass of the structure shown. Where two headings read alike, the source gives them in different places.

What was measured:
[1] = system: Test Organism 2 (Escherichia Coli NIHJ JC-2 (IFO 12734)); experiment: influence of the addition of horse serum on the MIC; assay type: cell-based
Escherichia Coli NIHJ = experiment: antimicrobial activity, serial dilution method on agar plate; assay type: cell-based
Summary of the method: (§1)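 Reported figure is the lowest compound level (mcg/ml) inhibiting growth on Heart Infusion agar in a serial plate dilution. Suspensions of 1×10^8 and 1×10^6 cells/ml served as inocula.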

[2] = system: Enterobacter aerogenes IFO 12979; experiment: as above; assay type: cell-based; details: Klebsiella aerogenes
Summary of the method: as §1

Shigella Sonnei EW 33 = experiment: as above; assay type: cell-based; details: read-out: Minimum Inhibitory Concentration
Summary of the method: as §1

[3] = system: Yersinia enterocolitica 0-3; experiment: as above; assay type: cell-based
Summary of the method: as §1

[4] = system: Streptococcus pyogenes IID S-23; experiment: as above; assay type: cell-based
Summary of the method: as §1

Hafnia alvei IFO 3731 = experiment: as above; assay type: cell-based
Summary of the method: as §1

[5] = system: Pseudomonas aeruginosa NCTC 10490; experiment: as above; assay type: cell-based
Summary of the method: as §1

Enterobacter cloacae = experiment: as above; assay type: cell-based
Summary of the method: as §1

[6] = system: Proteus vulgaris IID OX-19; experiment: as above; assay type: cell-based; details: read-out: Minimum Inhibitory Concentration
Summary of the method: as §1

[7] = system: Pseudomonas putida IFO 13696; experiment: as above; assay type: cell-based
Summary of the method: as §1

[8] = system: Serattia marcescens IFO 12648; experiment: as above; assay type: cell-based
Summary of the method: as §1

[9] = system: Staphylococcus aureus FDA 209 P; experiment: as above; assay type: cell-based
Summary of the method: as §1

[10] = system: Corinebacterium diphteriae; experiment: as above; assay type: cell-based
Summary of the method: as §1

[11] = system: Pseudomonas aeruginosa E-2; experiment: as above; assay type: cell-based
Summary of the method: as §1

[12] = system: Salmonella typhi 0-901 (NCTC 8393); experiment: as above; assay type: cell-based; details: Salmonella enterica
Summary of the method: as §1

[13] = system: Streptococcus pneumoniae Type I; experiment: as above; assay type: cell-based
Summary of the method: as §1

[14] = system: Pseudomonas maltophilia IFO 12692; experiment: as above; assay type: cell-based; details: Stenotrophomonas maltophilia, IFO12692, read-out: Minimum Inhibitory Concentration
Summary of the method: as §1

Klebsiella pneumoniae = experiment: as above; assay type: cell-based
Summary of the method: as §1

Proteus rettgeri NIH 96 = experiment: as above; assay type: cell-based; details: Providencia rettgeri
Summary of the method: as §1

[15] = inactivation ratio by human serum protein; details: 3.1 mcg/ml, 37° C.
Procedure: (§2) A 1/15 mol/l phosphate buffer was added to powder of Moni-Trol 1 (dehydrated preparation of human serum, a product of Midori Juji Co., Ltd.) to prepare a composition having the same serum protein concentration as natural human serum and this preparation was labeled "100% human serum", an aliquot of the "100% human serum" preparation was mixed with the same volume of the above buffer to prepare "50% human serum" and another aliquot was mixed with 4 times as much as its volume of the buffer to prepare "20% human serum".

in vitro = details: human
Procedure: as §2

[16] = read-out: Minimum Inhibitory Concentration, inoculum 1 × 10^6 cells/ml
[17] = read-out: Minimum Inhibitory Concentration, inoculum 1 × 10^8 cells/ml
[18] = IFO12979, read-out: Minimum Inhibitory Concentration, inoculum 1 × 10^6 cells/ml
[19] = IFO12979, read-out: Minimum Inhibitory Concentration, inoculum 1 × 10^8 cells/ml
[20] = Yersinia enterocolitica, 03, read-out: Minimum Inhibitory Concentration, inoculum 1 × 10^6 cells/ml
[21] = Yersinia enterocolitica, 03, read-out: Minimum Inhibitory Concentration, inoculum 1 × 10^8 cells/ml
[22] = IIDS23, read-out: Minimum Inhibitory Concentration, inoculum 1 × 10^6 cells/ml
[23] = IIDS23, read-out: Minimum Inhibitory Concentration, inoculum 1 × 10^8 cells/ml
[24] = NCTC10490, read-out: Minimum Inhibitory Concentration, inoculum 1 × 10^6 cells/ml
[25] = NCTC10490, read-out: Minimum Inhibitory Concentration, inoculum 1 × 10^8 cells/ml
[26] = IIDOX19, inoculum 1 × 10^6 cells/ml
[27] = IIDOX19, inoculum 1 × 10^8 cells/ml
[28] = FDA209, read-out: Minimum Inhibitory Concentration, inoculum 1 × 10^6 cells/ml
[29] = FDA209, read-out: Minimum Inhibitory Concentration, inoculum 1 × 10^8 cells/ml
[30] = E2, read-out: Minimum Inhibitory Concentration, inoculum 1 × 10^6 cells/ml
[31] = E2, read-out: Minimum Inhibitory Concentration, inoculum 1 × 10^8 cells/ml
[32] = inoculum 1 × 10^6 cells/ml, read-out: Minimum Inhibitory Concentration
[33] = inoculum 1 × 10^8 cells/ml, read-out: Minimum Inhibitory Concentration
[34] = NIH96, read-out: Minimum Inhibitory Concentration, inoculum 1 × 10^6 cells/ml
[35] = NIH96, read-out: Minimum Inhibitory Concentration, inoculum 1 × 10^8 cells/ml

SMILES: CC1CCc2c(N3CCNCC3)ccc3c(=O)c(C(=O)O)cn1c23 (stereo not drawn) [A]
- MIC ([1]; read-out: Minimum Inhibitory Concentration, horse serum 0%, inoculum 10^6): 1.6 mg/L (≈ 4.89 µM)
- MIC ([1]; read-out: Minimum Inhibitory Concentration, horse serum 0%, inoculum 10^8): 1.6 mg/L (≈ 4.89 µM)
- MIC ([1]; read-out: Minimum Inhibitory Concentration, horse serum 10%, inoculum 10^6): 0.8 mg/L (≈ 2.44 µM)
- MIC ([1]; read-out: Minimum Inhibitory Concentration, horse serum 10%, inoculum 10^8): 0.8 mg/L (≈ 2.44 µM)
- MIC ([1]; read-out: Minimum Inhibitory Concentration, horse serum 20%, inoculum 10^6): 0.8 mg/L (≈ 2.44 µM)
- MIC ([1]; read-out: Minimum Inhibitory Concentration, horse serum 20%, inoculum 10^8): 0.8 mg/L (≈ 2.44 µM)
- MIC ([1]; read-out: Minimum Inhibitory Concentration, horse serum 40%, inoculum 10^6): 0.4 mg/L (≈ 1.22 µM)
- MIC ([1]; read-out: Minimum Inhibitory Concentration, horse serum 40%, inoculum 10^8): 0.4 mg/L (≈ 1.22 µM)
- MIC (Escherichia Coli NIHJ; [16]): 0.4 mg/L (≈ 1.22 µM)
- MIC (Escherichia Coli NIHJ; [17]): 0.8 mg/L (≈ 2.44 µM)
- MIC [2, 18]: 0.8 mg/L (≈ 2.44 µM)
- MIC [2, 19]: 0.8 mg/L (≈ 2.44 µM)
- MIC (Shigella Sonnei EW 33; inoculum 1 × 10^6 cells/ml): 0.4 mg/L (≈ 1.22 µM)
- MIC (Shigella Sonnei EW 33; inoculum 1 × 10^8 cells/ml): 0.8 mg/L (≈ 2.44 µM)
- MIC [3, 20]: 1.6 mg/L (≈ 4.89 µM)
- MIC [3, 21]: 3.1 mg/L (≈ 9.47 µM)
- MIC [4, 22]: 12.5 mg/L (≈ 38.2 µM)
- MIC [4, 23]: 25 mg/L (≈ 76.4 µM)
- MIC (Hafnia alvei IFO 3731; IFO3731, read-out: Minimum Inhibitory Concentration, inoculum 1 × 10^6 cells/ml): 3.1 mg/L (≈ 9.47 µM)
- MIC (Hafnia alvei IFO 3731; IFO3731, read-out: Minimum Inhibitory Concentration, inoculum 1 × 10^8 cells/ml): 6.3 mg/L (≈ 19.2 µM)
- MIC [5, 24]: 3.1 mg/L (≈ 9.47 µM)
- MIC [5, 25]: 6.3 mg/L (≈ 19.2 µM)
- MIC (Enterobacter cloacae; [16]): 0.8 mg/L (≈ 2.44 µM)
- MIC (Enterobacter cloacae; [17]): 0.8 mg/L (≈ 2.44 µM)
- MIC [6, 26]: 0.8 mg/L (≈ 2.44 µM)
- MIC [6, 27]: 1.6 mg/L (≈ 4.89 µM)
- MIC ([7]; IFO13696, read-out: Minimum Inhibitory Concentration, inoculum 1 × 10^6 cells/ml): 1.6 mg/L (≈ 4.89 µM)
- MIC ([7]; IFO13696, read-out: Minimum Inhibitory Concentration, inoculum 1 × 10^8 cells/ml): 3.1 mg/L (≈ 9.47 µM)
- MIC [8, 16]: 1.6 mg/L (≈ 4.89 µM)
- MIC [8, 17]: 3.1 mg/L (≈ 9.47 µM)
- MIC [9, 28]: 3.1 mg/L (≈ 9.47 µM)
- MIC [9, 29]: 6.3 mg/L (≈ 19.2 µM)
- MIC [10, 16]: 1.6 mg/L (≈ 4.89 µM)
- MIC [10, 17]: 1.6 mg/L (≈ 4.89 µM)
- MIC [11, 30]: 6.3 mg/L (≈ 19.2 µM)
- MIC [11, 31]: 12.5 mg/L (≈ 38.2 µM)
- MIC [12, 32]: 0.2 mg/L (≈ 0.611 µM)
- MIC [12, 33]: 0.4 mg/L (≈ 1.22 µM)
- MIC [13, 16]: 3.1 mg/L (≈ 9.47 µM)
- MIC [13, 17]: 12.5 mg/L (≈ 38.2 µM)
- MIC [14]: 12.5 mg/L (≈ 38.2 µM)
- MIC (Klebsiella pneumoniae; [16]): 1.6 mg/L (≈ 4.89 µM)
- MIC (Klebsiella pneumoniae; [17]): 1.6 mg/L (≈ 4.89 µM)
- MIC (Proteus rettgeri NIH 96; [34]): 0.4 mg/L (≈ 1.22 µM)
- MIC (Proteus rettgeri NIH 96; [35]): 0.4 mg/L (≈ 1.22 µM)
- fraction unbound at 2 h ([15]; 10% human serum): 0.918
- fraction unbound at 2 h ([15]; 20% human serum): 1
- fraction unbound at 2 h ([15]; 100% human serum): 1

SMILES: CCn1cc(C(=O)O)c(=O)c2ccc(C)nc21 [E]
- MIC (Escherichia Coli NIHJ; [32]): 1.6 mg/L (≈ 6.89 µM)
- MIC (Escherichia Coli NIHJ; [33]): 3.1 mg/L (≈ 13.3 µM)
- MIC [2, 18]: 3.1 mg/L (≈ 13.3 µM)
- MIC [2, 19]: 6.3 mg/L (≈ 27.1 µM)
- MIC (Shigella Sonnei EW 33; inoculum 1 × 10^6 cells/ml): 3.1 mg/L (≈ 13.3 µM)
- MIC (Shigella Sonnei EW 33; inoculum 1 × 10^8 cells/ml): 3.1 mg/L (≈ 13.3 µM)
- MIC [3, 20]: 1.6 mg/L (≈ 6.89 µM)
- MIC [3, 21]: 12.5 mg/L (≈ 53.8 µM)
- MIC [4, 22]: > 100 mg/L
- MIC [4, 23]: > 100 mg/L
- MIC (Hafnia alvei IFO 3731; IFO3731, inoculum 1 × 10^6 cells/ml, read-out: Minimum Inhibitory Concentration): 50 mg/L (≈ 215 µM)
- MIC (Hafnia alvei IFO 3731; IFO3731, inoculum 1 × 10^8 cells/ml, read-out: Minimum Inhibitory Concentration): 100 mg/L (≈ 431 µM)
- MIC [5, 24]: > 100 mg/L
- MIC [5, 25]: > 100 mg/L
- MIC (Enterobacter cloacae; [16]): 3.1 mg/L (≈ 13.3 µM)
- MIC (Enterobacter cloacae; [17]): 3.1 mg/L (≈ 13.3 µM)
- MIC [6, 26]: 3.1 mg/L (≈ 13.3 µM)
- MIC [6, 27]: 3.1 mg/L (≈ 13.3 µM)
- MIC ([7]; IFO13696, inoculum 1 × 10^6 cells/ml, read-out: Minimum Inhibitory Concentration): 50 mg/L (≈ 215 µM)
- MIC ([7]; IFO13696, inoculum 1 × 10^8 cells/ml, read-out: Minimum Inhibitory Concentration): 100 mg/L (≈ 431 µM)
- MIC [8, 16]: 3.1 mg/L (≈ 13.3 µM)
- MIC [8, 17]: 3.1 mg/L (≈ 13.3 µM)
- MIC [9, 28]: 50 mg/L (≈ 215 µM)
- MIC [9, 29]: 50 mg/L (≈ 215 µM)
- MIC [10, 16]: > 100 mg/L
- MIC [10, 17]: > 100 mg/L
- MIC [11, 30]: > 100 mg/L
- MIC [11, 31]: > 100 mg/L
- MIC [12, 16]: 3.1 mg/L (≈ 13.3 µM)
- MIC [12, 17]: 3.1 mg/L (≈ 13.3 µM)
- MIC [13, 16]: > 100 mg/L
- MIC [13, 17]: > 100 mg/L
- MIC [14]: > 100 mg/L
- MIC (Klebsiella pneumoniae; [16]): 3.1 mg/L (≈ 13.3 µM)
- MIC (Klebsiella pneumoniae; [17]): 3.1 mg/L (≈ 13.3 µM)
- MIC (Proteus rettgeri NIH 96; [34]): 0.8 mg/L (≈ 3.44 µM)
- MIC (Proteus rettgeri NIH 96; [35]): 1.6 mg/L (≈ 6.89 µM)
- fraction unbound at 2 h (in vitro; 10% human serum): 0.528
- fraction unbound at 2 h (in vitro; 10% human serum, Inactivation Ratio): 0.587
- fraction unbound at 2 h (in vitro; 20% human serum): 0.608
- fraction unbound at 2 h (in vitro; 20% human serum, Inactivation Ratio): 0.565
- fraction unbound at 2 h (in vitro; 50% human serum): 0.376
- fraction unbound at 2 h (in vitro; 50% human serum, Inactivation Ratio): 0.387
- fraction unbound at 2 h (in vitro; 100% human serum): 0.24
- fraction unbound at 2 h (in vitro; 100% human serum, Inactivation Ratio): 0.387
